Patent US20250268903A1, “RXFP1 AGONISTS” (BRISTOL-MYERS SQUIBB COMPANY, priority 2021, published 2025)

How the values were obtained:
[1] = intravenous (IV) formulation; cited from earlier work
human RXFP1 = molecular target: T1, human RXFP1 (Homo sapiens, UniProt Q9HBX9); assay: hRXFP1 HEK293 cAMP assay (HTRF); assay type: cell-based; conditions: HEK293 cells stably expressing human RXFP1, 30 min at room temperature
T1 construct: expressed in transfected cells
T1 sequence (Q9HBX9 1-757): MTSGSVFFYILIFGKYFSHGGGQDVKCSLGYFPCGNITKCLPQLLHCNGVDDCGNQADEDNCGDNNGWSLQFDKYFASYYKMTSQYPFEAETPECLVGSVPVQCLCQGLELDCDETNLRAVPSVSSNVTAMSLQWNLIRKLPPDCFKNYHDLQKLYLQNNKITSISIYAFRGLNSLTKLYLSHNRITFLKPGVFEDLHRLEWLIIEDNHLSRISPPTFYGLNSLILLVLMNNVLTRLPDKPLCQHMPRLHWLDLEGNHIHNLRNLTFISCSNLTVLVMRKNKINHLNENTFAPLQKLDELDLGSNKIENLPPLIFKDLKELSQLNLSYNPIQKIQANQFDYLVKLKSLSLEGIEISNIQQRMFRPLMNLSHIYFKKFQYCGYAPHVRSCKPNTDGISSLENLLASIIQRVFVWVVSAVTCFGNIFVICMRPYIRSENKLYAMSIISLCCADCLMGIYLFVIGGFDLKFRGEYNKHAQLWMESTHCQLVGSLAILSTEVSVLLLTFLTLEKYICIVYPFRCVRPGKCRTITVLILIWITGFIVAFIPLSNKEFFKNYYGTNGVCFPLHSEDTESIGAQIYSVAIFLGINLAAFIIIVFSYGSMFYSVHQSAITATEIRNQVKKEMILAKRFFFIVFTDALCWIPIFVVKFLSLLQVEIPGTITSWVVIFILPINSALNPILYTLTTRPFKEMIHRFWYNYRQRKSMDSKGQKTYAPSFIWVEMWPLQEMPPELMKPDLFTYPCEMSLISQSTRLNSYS
Method in brief: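 HEK293 cells stably expressing human RXFP1 (1500 cells/well) in HBSS/20 mM HEPES/0.05% BSA/0.5 mM IBMX. Compounds were tested at 0.010 nM–50 μM final (2% DMSO) for 30 min at room temperature. cAMP was measured by HTRF and values derived by 4-parameter logistic fit.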

Compound	first-phase pharmacokinetic half-life [1]	EC50 (human RXFP1)
Serelaxin: "an intravenous (IV) formulation of the recombinant human relaxin peptide with a relatively short first-phase pharmacokinetic half-life of 0.09 hours"	5.4 min	
COc1ccc(C2CC3CC(O)CC32)cc1C(=O)N[C@H]1[C@@H](C(=O)Nc2ccc(F)c(C(F)(F)F)c2)[C@H]2CC[C@@H]1/C2=C\C1CC1 (single isomer, unassigned) [Example 340]		78.5 nM
COc1ccc(CC[C@@H](C)O)cc1C(=O)N[C@@H]1C2CCC(/C2=C/C2CC2)[C@@H]1C(=O)Nc1ccc(F)c(C(F)(F)F)c1 (stereo partly drawn) [Example 95, (2S,3R,7Z)-7-(cyclopropylmethyli-dene)-N-[4-fluoro-3-(trifluoromethyl)phe-nyl]-3-{5-[(3R)-3-hydroxybutyl]-2-methoxybenzamido} bicyclo[2.2.1]heptane-2-carboxamide]		50 nM
COc1ccc(COC2CCOC2)cc1C(=O)N[C@@H]1C2CCC(/C2=C/C(F)(F)F)[C@@H]1C(=O)Nc1ccc(F)c(C(F)(F)F)c1 (stereo partly drawn) [Example 27, (2S,3R,7Z)-N-[4-fluoro-3-(trifluoromethyl)phe-nyl]-3-{2-methoxy-5-[(oxolan-3-yloxy)methyl]benza-mido}-7-(2,2,2-trifluoroethylidene)bi-cyclo[2.2.1]heptane-2-carboxamide]		4680 nM
COc1c(F)cc(C(=O)N2CC3(C2)CC(O)(C(F)(F)F)C3)cc1C(=O)N[C@H]1[C@@H](C(=O)N[C@H](C)C2(C)CC2)[C@H]2CC[C@@H]1/C2=C\C1CC1 [Example 372, (1R,2S,3R,4R,7Z)-7-(cyclopropyl-methylidene)-3-{3-fluoro-5-[6-hydroxy-6-(trifluoromethyl)-2-azaspiro[3.3]heptane-2-carbonyl]-2-methoxybenzamido}-N-[(1R)-1-(1-methylcyclopropyl)ethyl]bicyclo[2.2.1] heptane-2-carboxamide]		5.9 nM
